# Measured values taken from patent US9415030B2 (priority 2008, dated 2016).
# Where two headings read alike, the source gives them in different places.
# What was measured:
# OCD = assay: Earlier treatments of Subject 1 (SSRIs, atypical neuroleptics, IVIG); format: in vivo, human; conditions: Subject 1, before glycine treatment
# clinical = conditions: human, in vivo
# Description: Hyperammonemia is seen in several abnormal conditions, e.g. inborn errors of metabolism that affect the urea cycle, small bowel syndrome, and others.
# lupus mice = conditions: fed a lot of arginine in their diet; cited from earlier work
# [1] = system: cerebellar granule neurons; conditions: cultured cerebellar granule neurons; cited from earlier work
# [2] = system: human cerebellar granule neurons; conditions: cultured cerebellar granule neurons; cited from earlier work
# cognition = system: cognition
# Description: Available evidence consists of records for formal cognitive testing, school records from pre-kindergarten through college (in progress), SAT scores, including scores on practice tests in an SAT preparation course, and diary-recorded observations made in parental tutoring sessions occurring from first grade through college.
# Preparation for the SAT test included a test preparation course that involved practice tests that simulated actual test conditions. […] It should be noted that both official and unofficial SAT tests were taken in the standard time intervals.
# No parental tutoring was given and it should be noted that Subject 1 received no special accommodations in this course.
# In the course of these explanations, the importance of these facts was strongly emphasized. One and a half months after the course was over, Subject 1 was again queried by their parent on this topic.
# [3] = system: OCD, BDD, and ADHD symptoms
# Description: Although individual symptoms have varied in intensity over time, the basic spectrum of signs and symptoms appears to have been unchanged over 15 years.
# Participation in family gatherings has increased.
# NMDA co-agonist site = NMDA co-agonist site (Homo sapiens, UniProt Q05586); conditions: 0.8 g/kg body weight/day; cited from earlier work
# [4] = 1 year after initiation of glycine treatment
compound,measurement,setting,value
Fc1ccc([C@@H]2CCNC[C@H]2COc2ccc3c(c2)OCO3)cc1 [Paxil],response of OCD to treatment,OCD,non-responder
"N=C(N)NCCC[C@H](N)C(=O)O [arginine, L-arginine]",concentration at 3 h,clinical,98 µM
same,plasma ammonia concentration,clinical,~94 µM
same,survival,lupus mice,die more quickly
CC[C@H]1OC(=O)[C@H](C)[C@@H](O[C@H]2C[C@@](C)(OC)[C@@H](O)[C@H](C)O2)[C@H](C)[C@@H](O[C@@H]2O[C@H](C)C[C@H](N(C)C)[C@H]2O)[C@](C)(OC)C[C@@H](C)C(=O)[C@H](C)[C@@H](O)[C@]1(C)O [clarithromycin],NMDA receptor mediated excitotoxic cell death,[1],inhibited NMDA receptor mediated excitotoxic cell death
same,kainate-mediated excitotoxicity,[2],not kainate-mediated excitotoxicity
glycine,college algebra test scores,cognition; 10 and 14 weeks after glycine cessation,low 90% range
same,college algebra test scores,cognition; 21 and 26 weeks after glycine cessation,low 80% range
same,improvement of SAT scores during Kaplan preparation course,cognition; course begun six months after starting glycine,approximately 250 points
same,cognition,cognition; high-dose glycine treatment,cognition improved
same,memory consolidation and/or retrieval,cognition; nine months after glycine cessation,return of difficulties in memory consolidation and/or retrieval
same,"SAT math score, official test",cognition; sustained glycine treatment,520
same,"SAT math score, practice test 1",cognition; sustained glycine treatment,390
same,"SAT math score, practice test 2",cognition; sustained glycine treatment,460
same,"SAT math score, practice test 3",cognition; sustained glycine treatment,490
same,"SAT verbal score, official test",cognition; sustained glycine treatment,660
same,"SAT verbal score, practice test 1",cognition; sustained glycine treatment,540
same,"SAT verbal score, practice test 2",cognition; sustained glycine treatment,540
same,"SAT verbal score, practice test 3",cognition; sustained glycine treatment,600
same,percentile of official SAT verbal score,cognition; sustained glycine treatment,90 percentile
same,intolerance of mirrors,[3]; [4],reduced intolerance of mirrors
same,perseverative behavior during taxi rides,[3]; [4],much reduced
same,decline on glycine cessation,[3]; 6 week cessation with no infection,little or no decline
same,BDD signs and symptoms after glycine cessation,[3]; 9 month cessation begun May 2006,clear increase in BDD signs and symptoms
same,line crossing obsession,"[3]; Subject 1, during glycine treatment",no signs of the line crossing obsession
same,time to first behavioral improvement after initiation of glycine treatment,"[3]; Subject 1, parent's report",about three
same,recovery of gains after glycine resumption,[3]; over three months after resumption,previous gains were largely recovered
same,BDD signs and symptoms,[3]; periods of sustained glycine treatment,continued to improve
same,NMDA activity,NMDA co-agonist site,moderately enhanced NMDA activity
